Patent US11059815B2, “Synthesis of small molecule histone deacetylase 6 degraders, compounds formed thereby, and pharmaceutical compositions containing them” (Wisconsin Alumni Research Foundation, priority 2018, dated 2021)

Experiments:
HDAC6 = biological target: T1, HDAC6 (Homo sapiens, UniProt Q9UBN7); assay: In-cell ELISA of HDAC6 protein level in MM1S cells; type: cell-based; details: 6 h, 100% minus mean (± SD) relative HDAC6 expression; for inhibition at 0.01 µM / inhibition at 0.1 µM: MM1.S; for inhibition at 0.01 µM: n=3, read-out: Degradation (%) 10 nM; for inhibition at 0.1 µM: n=3, read-out: Degradation (%) 100 nM
T1 construct: endogenous in cells; host or cells: MM1S (ATCC CRL-2974)
T1 sequence (Q9UBN7 1-1215): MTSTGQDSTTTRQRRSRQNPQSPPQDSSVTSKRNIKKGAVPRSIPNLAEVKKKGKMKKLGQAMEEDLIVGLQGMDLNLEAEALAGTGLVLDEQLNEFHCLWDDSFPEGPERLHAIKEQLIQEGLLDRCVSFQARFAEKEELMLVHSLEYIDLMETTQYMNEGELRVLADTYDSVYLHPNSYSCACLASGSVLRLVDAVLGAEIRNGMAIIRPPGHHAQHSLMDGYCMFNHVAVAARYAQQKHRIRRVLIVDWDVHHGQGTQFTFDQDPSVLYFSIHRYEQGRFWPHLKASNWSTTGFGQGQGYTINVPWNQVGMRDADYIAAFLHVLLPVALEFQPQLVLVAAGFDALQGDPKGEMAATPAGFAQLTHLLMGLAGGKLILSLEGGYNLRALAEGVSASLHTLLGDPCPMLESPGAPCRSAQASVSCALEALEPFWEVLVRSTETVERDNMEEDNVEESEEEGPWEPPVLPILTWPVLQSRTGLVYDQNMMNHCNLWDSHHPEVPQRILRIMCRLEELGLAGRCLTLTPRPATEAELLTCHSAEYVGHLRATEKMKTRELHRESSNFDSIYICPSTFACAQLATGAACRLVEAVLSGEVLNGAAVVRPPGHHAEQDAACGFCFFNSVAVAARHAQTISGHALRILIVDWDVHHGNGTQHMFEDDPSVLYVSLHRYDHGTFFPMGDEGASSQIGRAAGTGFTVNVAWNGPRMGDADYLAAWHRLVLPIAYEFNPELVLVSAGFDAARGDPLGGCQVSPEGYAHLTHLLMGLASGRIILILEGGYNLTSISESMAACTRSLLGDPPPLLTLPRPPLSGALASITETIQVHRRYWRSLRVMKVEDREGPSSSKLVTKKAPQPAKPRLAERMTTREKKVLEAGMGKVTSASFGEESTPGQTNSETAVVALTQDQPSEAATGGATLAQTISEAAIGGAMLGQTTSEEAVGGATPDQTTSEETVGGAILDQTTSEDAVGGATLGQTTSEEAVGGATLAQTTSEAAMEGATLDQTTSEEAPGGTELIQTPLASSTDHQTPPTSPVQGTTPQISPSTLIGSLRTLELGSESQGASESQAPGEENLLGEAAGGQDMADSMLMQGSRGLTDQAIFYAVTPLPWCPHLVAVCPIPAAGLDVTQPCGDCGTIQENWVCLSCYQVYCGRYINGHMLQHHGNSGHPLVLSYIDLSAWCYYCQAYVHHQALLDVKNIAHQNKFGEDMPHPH
Protocol: FIG. 9 is a histogram depicting the results of screening of compounds for HDAC6 degradation activity by in-cell ELISA. MM1S cells were treated with compounds at 100 nM (blue bars) or 10 nM (red bars) for 6 h. Data was normalized to vehicle (DMSO)-treated group and the bar graph represents as mean of relative HDAC6 protein level (n=3) with ±SD as error bar. Statistical significance was analyzed by one-way ANOVA. Not significant (ns) P>0.05, *P≤0.05, **P≤0.01, ***P≤0.001, ****P≤0.0001.
FIG. 11 is a graph depicting dose response of selected degrader candidates. MM1S cells were treated for 6 h and analyzed by in-cell ELISA. Data was normalized to vehicle (DMSO)-treated group and dot plot represented as mean relative expression (n=3) with ±SD as error bar. Nonlinear fitting of inhibitor concentration vs. response (three parameters) was generated by GraphPad Prism with R2 from 0.97 to 0.99.
FIG. 15 is a histogram depicting relative HDAC6 expression as a function of linker length for compounds 3a through 3k as described in the Examples section, Part 2. Human MM1S cells were treated with 100 nM degraders for 6 hours and analyzed by in-cell ELISA assay.
FIG. 17 is a dose-response curve for degraders 3j (n=1), 3k (n=12) and 2, at concentrations from 1 nM to 300 nM for 4 h in MM1S. See the Examples, Part 2.
To screen the new series of degraders, an in-cell ELISA assay was developed and validated. The compounds were treated at 100 nM and 10 nM in MM1S cells for 6 h. Resulting cells were then fixed and analyzed by in-cell ELISA. […] Degraders including 1 at 100 nM degraded 73.5% to 85.0% of HDAC6 with minor difference. At 10 nM concentration of compounds, obvious structure-activity-relationship (SAR) was observed. […] For example, 12d, 12h, 12i, 12o and 12p all achieved about 70% degradation. Among the C4-linked series, 12d with medium length linker (5+1) achieved most degradation in sub-series 12a-e (m=1). […] Among C5-linked series, the potency of sub-series 12l-p (m=1) increased with the linker length. […] It appeared that both the distance and linking positions contributed to the degradation efficiency. The rigid triazole ring in the middle of the linker likely modulated the plasticity of degrader-bridged ternary complex.
The amount of cellular HDAC6 was measured in response to concentrations of compounds from 0.1 nM to 1 μM. […] The new degraders had single-digit nanomolar DC50, which was about 3 to 5 fold of improvement from 9.12 nM of degrader 1. […] As discussed above, most PROTACs were designed to avoid degrading other proteins except the targeted POIs. However, in these studies, it was hypothesized that HDAC6 degraders with IKZF degradation will have enhanced anti-proliferation effect MM1S cells.
MM1S cells were harvested and plated with 5×10^5 cells in 100 μL media per well 96-wells plate. After overnight seeding, 25 μL media containing 5× dosing concentration of the compounds or vehicle was added to each well. After 6-hour treatment at 37° C. in a humidified 5% CO2 atmosphere, cells were fixed by adding 125 μL 8% formaldehyde in TBS buffer (137 mM NaCl, 25 mM Tris, 2.7 mM potassium chloride, pH 7.6) and incubated at room temperature (RT) for 15 minutes. Removal of fixing solution was followed by once rinse and twice washes with TBS-T washing buffer (137 mM NaCl, 20 mM Tris, 0.1% Tween, pH 7.6). Cells were then permeabilized by adding 100 μL 0.1% Triton-X in TBS and incubated at RT for 15 minutes. Removal of permeabilizing solution was followed by once rinse and once wash with TBS-T. Cellular endogenous peroxidases were quenched by adding 100 μL 1% H2O2 in TBS and incubation at RT for 20 minutes. Removal of quenching solution was followed by once rinse and once wash with TBS-T. Non-specific binding sites were blocked by adding […] 5% BSA in TBS-T (with 0.02% NaN3) and incubation at 4° C. overnight. […]

acetylated tubulin = assay: Western blot of acetylated tubulin in MM1S cells; type: cell-based, human; details: 100 nM
From the text: (§1) FIGS. 12A, 12B, and 12C are a series of western blots showing that degrader 12d selectively promotes HDAC6 degradation in MM1S cells.
(§2) To further examine the selectivity of the new generation of HDAC6 degraders, compound 12d was compared to SAHA, Next-A, degrader 1 and pan-inhibitor 2 for change of acetylated a-tubulin and acetylated histone H3.
(§3) When the cells reached 90% confluence, they were harvested and plated 1×10^6 cells per well in 6-well plate. After overnight seeding, the cells were treated with a solution of compounds or vehicle in culture medium. The culture medium was removed after treatment and then washed twice with cold PBS. To obtain whole cell lysate, all cells were treated with RIPA lysis buffer (25 mM Tris, pH 7-8, 150 mM NaCl, 0.1% SDS, 0.5% sodium deoxycholate, 1% Triton X-100, protease inhibitor cocktail (Roche, 1 tablet per 10 mL) and 1 mM PMSF) on ice for 10 minutes. Supernatant was collected after spinning down at 16,000 g at 4° C. for 15 minutes. Protein concentration was measured by using the Pierce BCA protein assay (Thermo Fisher Scientific). About 10-40 μg of total protein was mixed with 4× Laemmli Loading Dye (250 mM Tris, pH 6.8, 40% glycerol, 5% SDS, 0.005% bromophenol blue, 4% BME) and heated at 95-100° C. for 5 minutes. The heated sample was then subjected to 7.5-12% SDS-PAGE and transferred to PVDF membrane (Bio-Rad,). The membrane was blocked in 5% non-fat milk (Bio-rad) in TBS-T washing buffer (137 mM NaCl, 20 mM Tris, 0.1% Tween) and then incubated with primary antibodies at 4° C. overnight. […] The Immunoblot was generated by ChemiDoc MP Imaging Systems (Bio-Rad) and analyzed by Image J software (only available for download online at https://imagej.net/Downloads). […]
The activity of all eleven “n+4” VHL-based potential degraders to suppress HDAC6 expression was tested at 100 nM and compared to CRBN degrader 2 in MM1S cells. The resulting cells were analyzed for HDAC6 expression by in-cell ELISA (FIG. 15). […]

acetylated histone H3 = assay: Western blot of acetylated histone H3 in MM1S cells; type: cell-based, human
From the text: as §1, §2
as §3, with “Scientific).” for “Scientific). About 10-40 μg of total protein was mixed with 4× Laemmli Loading Dye (250 mM Tris, pH 6.8, 40% glycerol, 5% SDS, 0.005% bromophenol blue, 4% BME) and heated at 95-100° C. for 5 minutes. The heated sample was then subjected to 7.5-12% SDS-PAGE and transferred to PVDF membrane (Bio-Rad,). The membrane was blocked in 5% non-fat milk (Bio-rad) in TBS-T washing buffer (137 mM NaCl, 20 mM Tris, 0.1% Tween) and then incubated with primary antibodies at 4° C. overnight.”

inhibition at 0.01 µM (HDAC6; 10 nM) [%] | inhibition at 0.1 µM (HDAC6; 100 nM) [%] | Structure (SMILES) | further results
 |  | CCCCN(Cc1ccc(C(=O)NO)cc1)C(=O)Nc1ccc(OCCCCn2cc(CNc3cccc4c3C(=O)N(C3CCC(=O)NC3=O)C4=O)nn2)cc1 (stereo not drawn) [Compound 12n, 4-((1-butyl-3-(4-(4-(4-(((2-(2,6-dioxopiperidin-3-yl)-1,3-dioxoisoindolin-4-yl)amino)methyl)-1H-1,2,3-triazol-1-yl)butoxy)phenyl)ureido)methyl)-N-hydroxybenzamide] | Degradation (%) 10 nM (HDAC6; 10 nM, n=3): 63.3 ± 0.8%; Degradation (%) 100 nM (HDAC6; 100 nM, n=3): 80.9 ± 0.4%
~70 | 84.7 ± 1 | CCCCN(Cc1ccc(C(=O)NO)cc1)C(=O)Nc1ccc(OCCCCCn2cc(CNc3ccc4c(c3)C(=O)N(C3CCC(=O)NC3=O)C4=O)nn2)cc1 (stereo not drawn) [Compound 12o, 4-((1-butyl-3-(4-((5-(4-(((2-(2,6-dioxopiperidin-3-yl)-1,3-dioxoisoindolin-5-yl)amino)methyl)-1H-1,2,3-triazol-1-yl)pentyl)oxy)phenyl)ureido)methyl)-N-hydroxybenzamide] | 
~70 | 83.5 ± 0.5 | CCCCN(Cc1ccc(C(=O)NO)cc1)C(=O)Nc1ccc(OCCCCCCn2cc(CNc3ccc4c(c3)C(=O)N(C3CCC(=O)NC3=O)C4=O)nn2)cc1 (stereo not drawn) [Compound 12p, 4-((1-butyl-3-(4-((6-(4-(((2-(2,6-dioxopiperidin-3-yl)-1,3-dioxoisoindolin-5-yl)amino)methyl)-1H-1,2,3-triazol-1-yl)hexyl)oxy)phenyl)ureido)methyl)-N-hydroxybenzamide] | 
47.2 ± 4.8 | 80.4 ± 0.3 | CCCCN(Cc1ccc(C(=O)NO)cc1)C(=O)Nc1ccc(OCCn2cc(CCCNc3ccc4c(c3)C(=O)N(C3CCC(=O)NC3=O)C4=O)nn2)cc1 (stereo not drawn) [Compound 12q, 4-((1-butyl-3-(4-(2-(4-(3-((2-(2,6-dioxopiperidin-3-yl)-1,3-dioxoisoindolin-5-yl)amino)propyl)-1H-1,2,3-triazol-1-yl)ethoxy)phenyl)ureido)methyl)-N-hydroxybenzamide] | 
60.9 ± 0.4 | 81.9 ± 0.4 | CCCCN(Cc1ccc(C(=O)NO)cc1)C(=O)Nc1ccc(OCCCn2cc(CCCNc3ccc4c(c3)C(=O)N(C3CCC(=O)NC3=O)C4=O)nn2)cc1 (stereo not drawn) [Compound 12r, 4-((1-butyl-3-(4-(3-(4-(3-((2-(2,6-dioxopiperidin-3-yl)-1,3-dioxoisoindolin-5-yl)amino)propyl)-1H-1,2,3-triazol-1-yl)propoxy)phenyl)ureido)methyl)-N-hydroxybenzamide] | 
 |  | O=C(CCCCCCC(=O)Nc1ccccc1)NO [SAHA, Suberoylanilide hydroxamic acid, reference compound] | change of acetylated tubulin (acetylated tubulin): didn't; change of acetylated histone H3 (acetylated histone H3): strong acetylated histone H3 signal
